Data from PMC5474940 (Biochemistry, 2017).

Test system: AcOSα-PaFSα
Format: biochemical, Aspergillus clavatus
Details: read-out: AcOSα-PaFSα; labelled compound; 25 mM HEPES pH 8.0, 200 mM NaCl, 5 mM MgCl2, 30 °C; cyclase domain

## CC(C)=CCC/C(C)=C/CC/C(C)=C/CC/C(C)=C/COP(=O)(O)OP(=O)(O)O [GGPP]
  Km: 0.038 ± 0.01 µM
